From PubChem BioAssay (NCI)
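These data come from cells grown in 96-well plates and exposed to compound for 48 hours at five concentrations. The concentration for full growth arrest is given as TGI.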

How the values were obtained:
Test in all cases: NCI-60 cell line screen, 48 h
MALME-3M melanoma = system: MALME-3M melanoma
HOP-18 NSCLC = system: HOP-18 NSCLC
HCC-2998 colon = system: HCC-2998 colon
HT29 colon = system: HT29 colon
OVCAR-8 ovarian = system: OVCAR-8 ovarian
HL-60(TB) leukemia = system: HL-60(TB) leukemia
LXFL 529 NSCLC = system: LXFL 529 NSCLC
RXF 393 renal = system: RXF 393 renal
K-562 leukemia = system: K-562 leukemia
HCT-15 colon = system: HCT-15 colon
A549 NSCLC = system: A549 NSCLC
OVCAR-5 ovarian = system: OVCAR-5 ovarian
EKVX NSCLC = system: EKVX NSCLC
KM12 colon = system: KM12 colon
SN12C renal = system: SN12C renal
DMS 273 small cell lung = system: DMS 273 small cell lung
SK-MEL-5 melanoma = system: SK-MEL-5 melanoma
UO-31 renal = system: UO-31 renal
SF-268 CNS = system: SF-268 CNS
SF-539 CNS = system: SF-539 CNS
HOP-62 NSCLC = system: HOP-62 NSCLC
HOP-92 NSCLC = system: HOP-92 NSCLC
DMS 114 small cell lung = system: DMS 114 small cell lung
M19-MEL melanoma = system: M19-MEL melanoma
SK-MEL-2 melanoma = system: SK-MEL-2 melanoma
U251 CNS = system: U251 CNS
SNB-19 CNS = system: SNB-19 CNS
UACC-257 melanoma = system: UACC-257 melanoma
SW-620 colon = system: SW-620 colon
SNB-78 CNS = system: SNB-78 CNS
NCI-H460 lung = system: NCI-H460 lung
OVCAR-3 ovarian = system: OVCAR-3 ovarian
KM20L2 colon = system: KM20L2 colon
CAKI-1 renal = system: CAKI-1 renal
TK-10 renal = system: TK-10 renal
RPMI-8226 leukemia = system: RPMI-8226 leukemia
HCT-116 colon = system: HCT-116 colon
M14 melanoma = system: M14 melanoma
NCI-H226 lung = system: NCI-H226 lung
NCI-H23 lung = system: NCI-H23 lung
DLD-1 colon = system: DLD-1 colon
IGROV1 ovarian = system: IGROV1 ovarian
UACC-62 melanoma = system: UACC-62 melanoma
SNB-75 CNS = system: SNB-75 CNS
A498 renal = system: A498 renal
786-0 renal = system: 786-0 renal
OVCAR-4 ovarian = system: OVCAR-4 ovarian
SF-295 CNS = system: SF-295 CNS
RXF-631 renal = system: RXF-631 renal
ACHN renal = system: ACHN renal
LOX IMVI melanoma = system: LOX IMVI melanoma
SK-MEL-28 melanoma = system: SK-MEL-28 melanoma
MOLT-4 leukemia = system: MOLT-4 leukemia
SR leukemia = system: SR leukemia
NCI-H522 lung = system: NCI-H522 lung
COLO 205 colon = system: COLO 205 colon
XF 498 CNS = system: XF 498 CNS
SK-OV-3 ovarian = system: SK-OV-3 ovarian

Measured: TGI

Nc1nc(N)c(-c2ccccc2)c(C(=O)Nc2ccc(Cl)c(Cl)c2)n1
not listed: SR leukemia | NCI-H522 lung | COLO 205 colon | XF 498 CNS | SK-OV-3 ovarian
> 100 µM: all other assays above

C[n+]1c2ccccc2c(NC(CCC(N)=O)C(=O)O)c2ccccc21 (stereo not drawn)
not listed: CAKI-1 renal | LOX IMVI melanoma | SK-MEL-28 melanoma
> 100 µM: all other assays above
